Measured values as given in patent publication US9809861B2, “Method of evaluating inhibitory effect on damp-dry malodor” (Kao Corporation, priority 2012, dated 2017).

Tests used:
[1] = tested on: Moraxella sp. KMC4-1; experiment: Growth-inhibitory test; format: cell-based; details: SCD liquid medium, 24 hours, 35° C., (4) 500 ppm; for Growth-inhibitory effect: initial 10^4 CFU/mL, Substance (1) 10 ppm, (2)(3)(5)(6) 100 ppm; for Growth-inhibitory effect: bacteria number decrease compared to the control: Substance (2) 100 ppm
Protocol: To 4 mL of SCD liquid medium (manufactured by NIHON PHARMACEUTICAL CO., LTD), the substances (1) to (7) each were added so as to be the final concentration described in Table 15. As a control, a medium system not added with any test substance was also prepared. To the medium, the precultured Moraxella sp. KMC4-1 was inoculated so as to be the initial concentration of 10^4 CFU/mL and cultured for 24 hours at 35° C. while shaking (160 rpm). After that, it was subjected to serial dilution using LP dilution solution (NIHON PHARMACEUTICAL CO., LTD). Then, by using SCD-LP agar medium (NIHON PHARMACEUTICAL CO., LTD), the number of bacteria remained alive was determined.
As for the growth-inhibitory and the bactericidal effect, the evaluation was made as follows: compared to the control, when there was the bacteria number decrease of log 3 or more, it was rated as “A”; when there was the bacteria number decrease of log 1 or more but less than log 3, it was rated as “B”; and when there was the bacteria number decrease of less than log 1, it was rated as “C”.

[2] = tested on: Moraxella sp. KMC4-1; experiment: Sensory evaluation of inhibitory effect on damp-dry malodor on model examination cloth; format: cell-based; details: summary of Table 14
Protocol: (§1) Subsequently, by using Moraxella sp. KMC4-1, which is one kind of the microorganisms which produce damp-dry malodor-causing substances, sensory evaluation of the inhibitory effect on damp-dry malodor by the test substance and measurement of production amount of 4M3H as one kind of the damp-dry malodor-causing substances were carried out.
(§2) Moraxella sp. KMC4-1 was inoculated as a test microbe onto SCD-LP agar medium (manufactured by Wako Pure Chemical Industries, Ltd.) and cultured for 1 to 2 weeks at room temperature to give a pre-culture plate. Colony surface was scraped off from the pre-culture plate, suspended in 5 mL of physiological saline, and OD600 was adjusted to 1.0 (about 10^8 CFU/mL).
(§3) A cotton jersey cloth obtained in a constant state after sterilization and drying at 25° C., 40% RH (cotton jersey manufactured by Shikisensha Colo., LTD., without silket finish) was cut to a square of 2 cm×2 cm. To the cloth, a solution prepared by dissolving 0.5 mg of 14-methylhexadecanoic acid, as a sebaceous dirt component, in 0.1 mL methanol, was applied. Then, methanol was dried to solid, to give a model examination cloth.
Methanol solution was prepared for each test substance and applied at 20° C. on the model examination cloth such that applied amount of each test substance was […] per gram of the model examination cloth. It was then dried for 2 hours at room temperature to dry methanol. Thereafter, 0.1 mL of the microbe suspension was coated onto the model examination cloth, and cultured for 24 hours in a petri dish using an incubator at 37° C. with relative humidity of 70%, to obtain a microbe-fixed cloth.
The sensory test of the model examination cloth was evaluated by a professional panel who can distinguish different subjects based on the damp-dry malodor. A sample, in which an inhibitory effect on damp-dry malodor was confirmed, was rated as “A”; a sample, in which it was difficult to determine the inhibitory effect on damp-dry malodor or a Weak inhibitory effect on damp-dry malodor was confirmed, was rated as “B; and a sample, in which no inhibitory effect on damp-dry malodor was confirmed, was rated as “C”.

[3] = tested on: Moraxella sp. KMC4-1; experiment: Quantification of 4M3H produced in model examination cloth (LC-FL); format: cell-based; details: for Ratio of suppressing 4M3H production: cotton cloth with 0.5 mg 14-methylhexadecanoic acid, 24 hours, 37° C., relative to no test substance, Substance (1) 10 ppm, (2)(3)(5)(6) 100 ppm, (4) 500 ppm; for 4M3H production inhibition ratio: summary of Table 14
Protocol: as §1, §2, §3
[…] It was then dried for 2 hours at room temperature to dry methanol. Thereafter, 0.1 mL of the microbe suspension was coated onto the model examination cloth, and cultured for 24 hours in a petri dish using an incubator at 37° C. with relative humidity of 70%, to obtain a microbe-fixed cloth.
Further, the model examination cloth was analyzed by using LC-FL (liquid chromatography apparatus: HITACHI ELITE LaChrom (trade name, manufactured by Hitachi, Ltd.), column: Lichrosphere 100 RP-8(e) (trade name, manufactured by Agilent Technologies, Inc., 5 μm×125 mm×4 mmφ), column temperature: 40° C., eluent: a mixed solution of acetonitrile/water=7/3 (volume ratio), flow rate: 1.0 mL/min, detector: excitation wavelength (365 nm), measurement wavelength (412 nm)), and thereby quantification of 4M3H thus produced in the model examination cloth was carried out. Ratio of the produced 4M3H amount relative to the 4M3H production amount when no test substance was added was calculated, and then ratio of suppressing 4M3H production was calculated.

[4] = tested on: fadB gene; experiment: Change in expression amount of fadB gene in the presence of test substance (real time PCR); format: cell-based, Moraxella sp. KMC4-1; details: for Change in the expression amount of fadB gene: Substance (1) 10 ppm, (2)(3)(5)(6) 100 ppm, (4) 500 ppm; for expression amount of the fadB gene by the microorganisms: summary of Table 12
Protocol: The substances (1) to (7) described below each were added to 4 mL SCD liquid medium (manufactured by NIHON PHARMACEUTICAL CO., LTD). As a control, a medium system not added with any test substance was also prepared. To these medium, one platinum loop of precultured Moraxella sp. KMC4-1 was inoculated and cultured for 24 hours at 35 C while shaking (160 rpm).
To the cell liquid cultured for 24 hours, 10 mg of 16-methyloctadecanoic acid was added as a sebaceous dirt component. After culturing again for 6 hours at 35° C., the cells were collected. As a control, a system not added with a sebaceous dirt component was also cultured and cells were collected therefrom.
An RNA sample was prepared from the collected cells in the same manner as in the test example 1.
Reaction solutions for real time PCR were prepared in the same manner as above, except that, instead of the primer set including the primer containing the oligonucleotide having the base sequence set forth in SEQ ID NO: 13 and the primer containing the oligonucleotide having the base sequence set forth in SEQ ID NO: 14, the primer set described in Tables 11 to 13 was used.
The reaction solutions for real time PCR each were subjected to a gene amplification by using an automatic gene amplification thermal cycler DICE Real time system II (manufactured by Takara Bio Inc.), and then the expression amount of each of the fatty acid desaturase gene (the Δ9desaturase gene) and the β oxidation-relating enzyme genes (the fadB gene and the fadD gene) was measured. PCR reaction conditions were 40 cycles of (i) a thermal denaturation reaction at 95° C. for 20 seconds, and (ii) an annealing reaction and an elongation reaction at 60° C. for 30 seconds.
By having the gene expression of 16S rRNA as an internal standard, and having the gene expression amount when adding no sebaceous dirt component and no test substance as a reference value, change in expression amount of each gene was calculated relative to the reference value. A sample, in which the expression amount of the gene was ½ times or less the reference value, was rated as “A”; a sample, in which the expression amount of the gene was more than ½ times and ⅔ times or less the reference value, was rated as “B”; and a sample, in which the expression amount of the gene was more than ⅔ times the reference value, was rated as “C”.

| SMILES | Growth-inhibitory effect [1] | inhibitory effect on damp-dry malodor [2] | Ratio of suppressing 4M3H production [3] | 4M3H production inhibition ratio [3] | Change in the expression amount of fadB gene ([4]; primers SEQ ID NO: 25 / 26) | Change in the expression amount of fadB gene ([4]; primers SEQ ID NO: 27 / 28) | Change in the expression amount of fadB gene ([4]; primers SEQ ID NO: 29 / 30) | Change in the expression amount of fadB gene ([4]; primers SEQ ID NO: 31 / 32) | Growth-inhibitory effect: bacteria number decrease compared to the control [1] | expression amount of the fadB gene by the microorganisms [4] |
| --- | --- | --- | --- | --- | --- | --- | --- | --- | --- | --- |
| CCCCCCCCCC=O [Substance (1)] | C (the bacteria number decrease of less than log 1) | an inhibitory effect on damp-dry malodor was observed | 100% | high | C (the expression amount of the gene was more than ⅔ times the reference value) | C (the expression amount of the gene was more than ⅔ times the reference value) | C (the expression amount of the gene was more than ⅔ times the reference value) | C (the expression amount of the gene was more than ⅔ times the reference value) | – | – |
| CC(=O)OC(C)(C)Cc1ccccc1 [Substance (2)] | B (the bacteria number decrease of log 1 or more but less than log 3) | an inhibitory effect on damp-dry malodor was observed | 100% | high | A (the expression amount of the gene was ½ times or less the reference value) | A (the expression amount of the gene was ½ times or less the reference value) | A (the expression amount of the gene was ½ times or less the reference value) | A (the expression amount of the gene was ½ times or less the reference value) | 2 log | decreased |
| CNc1ccccc1C(=O)OC [Substance (3)] | C (the bacteria number decrease of less than log 1) | an inhibitory effect on damp-dry malodor was observed | 91% | high | A (the expression amount of the gene was ½ times or less the reference value) | A (the expression amount of the gene was ½ times or less the reference value) | A (the expression amount of the gene was ½ times or less the reference value) | B (the expression amount of the gene was more than ½ times and ⅔ times or less the reference value) | – | decreased |
| CCCCCCCC/C=C\CCCCCCCC(=O)O [Substance (4)] | B (the bacteria number decrease of log 1 or more but less than log 3) | an inhibitory effect on damp-dry malodor was observed | 81% | high | A (the expression amount of the gene was ½ times or less the reference value) | A (the expression amount of the gene was ½ times or less the reference value) | A (the expression amount of the gene was ½ times or less the reference value) | A (the expression amount of the gene was ½ times or less the reference value) | 2 log | decreased |
| O=C[C@H](O)[C@@H](O)[C@H](O)[C@H](O)CO [Substance (5)] | C (the bacteria number decrease of less than log 1) | – | 0% | – | C (the expression amount of the gene was more than ⅔ times the reference value) | C (the expression amount of the gene was more than ⅔ times the reference value) | C (the expression amount of the gene was more than ⅔ times the reference value) | C (the expression amount of the gene was more than ⅔ times the reference value) | – | – |
